PMC6792352, “Limited Chemical Structural Diversity Found to Modulate Thyroid Hormone Receptor in the Tox21 Chemical Library” (Environmental Health Perspectives, 2019)
Where a name gives a salt, the structure may show the parent alone.

assay: in vitro; conditions: rat, gh3-tre-luc cells, AC50 (uM) modified / 1000

C[C@H](N)C(=O)c1ccccc1 [(-)- (S)-Cathinone hydrochloride] and CC(C)CC(=O)OCc1ccccc1 [Benzyl 3-methylbutanoate] cannot be ordered by CC50 at 24 h: > 50 µM for the first, > 90 µM for the second.

First: COc1ccc(C2NC(=S)N3C(c4ccc(OC)c(OC)c4)NC(=S)N23)cc1OC (centres unmarked) [3,7-Bis(3,4-dimethoxyphenyl)tetrahydro-1H,5H-[1,2,4]triazolo[1,2-a][1,2,4]triazole-1,5-dithione]
Second: COc1cc(C)c(Cc2cnc(N)nc2N)cc1OC [Ormetoprim]
The CC50 at 24 h of the first is lower: 0.208 µM for the first, > 50 µM for the second.

CC(CO)OC(C)CO (centres unmarked) [Dipropylene glycol] and C=C(C)C(=O)OC(C)CO (centres unmarked) [Hydroxypropyl methacrylate] cannot be ordered by CC50 at 24 h: > 90 µM for the first, > 90 µM for the second.

First: N=C1N=C(N)c2ccccc21 [1H-Isoindole-1,3(2H)-diimine]
Second: CCc1ccc2c(c1)C(=O)c1ccccc1C2=O [2-Ethylanthraquinone]
The CC50 at 24 h of the first is lower: 35.8 µM for the first, > 90 µM for the second.

CC(C)Cc1ccccc1 [Isobutylbenzene] and CC(=O)OCCc1ccccc1 [2-Phenylethyl acetate] cannot be ordered by CC50 at 24 h: > 90 µM for the first, > 90 µM for the second.

CCCCOCCOC(=O)CCCCCCCCC(=O)OCCOCCCC [Bis(2-butoxyethyl) decanedioate] and CCCCC(CC)COC(=O)CCCCCCCC(=O)OCC(CC)CCCC (centres unmarked) [Bis(2-ethylhexyl) nonanedioate] cannot be ordered by CC50 at 24 h: > 90 µM for the first, > 90 µM for the second.

Compared with CC(=O)OCCN(CCOC(C)=O)c1ccc(N=Nc2ccc([N+](=O)[O-])cc2C#N)cc1 [Disperse Red 82], O=[N+]([O-])c1ccc(Oc2ccc([N+](=O)[O-])cc2)cc1 [1,1'-Oxybis(4-nitrobenzene)] is higher in CC50 at 24 h: 54 µM for the first, > 90 µM for the second.

Cc1cc(=O)oc2cc(O)cc(O)c12 [5,7-Dihydroxy-4-methylcoumarin] and COc1cc(C)ccc1O [2-Methoxy-4-methylphenol] cannot be ordered by CC50 at 24 h: > 90 µM for the first, > 90 µM for the second.

CCN(CC)C(=O)Nc1ccc(OCC(O)CNC(C)(C)C)c(C(C)=O)c1 (centres unmarked) [Celiprolol hydrochloride] and CCCCNC(=O)n1c(NC(=O)OC)nc2ccccc21 [Benomyl] cannot be ordered by CC50 at 24 h: > 50 µM for the first, > 90 µM for the second.

C/C(=C\C(=O)OCCCCCCCCC(=O)O)C[C@@H]1OC[C@H](C[C@@H]2O[C@H]2[C@@H](C)[C@H](C)O)[C@@H](O)[C@H]1O [Mupirocin] and CCCCCCCCCCCCCC(=O)OCC [Ethyl tetradecanoate] cannot be ordered by CC50 at 24 h: > 50 µM for the first, > 90 µM for the second.

CC(C)OC(=O)Nc1cccc(Cl)c1 [Chlorpropham] and CNNCc1ccc(C(=O)NC(C)C)cc1 [Procarbazine hydrochloride] cannot be ordered by CC50 at 24 h: > 90 µM for the first, > 50 µM for the second.

CCCCC1CCC(=O)O1 (centres unmarked) [4-Octanolide] and CCCCCCCN [Heptylamine] cannot be ordered by CC50 at 24 h: > 90 µM for the first, > 90 µM for the second.

CCOC(=O)OCC/C(SC(=O)OCC)=C(\C)N(C=O)Cc1cnc(C)nc1N [Dicethiamine hydrochloride] and CCCCc1c(C)nc(NCC)nc1OS(=O)(=O)N(C)C [Bupirimate] cannot be ordered by CC50 at 24 h: > 50 µM for the first, > 90 µM for the second.

O=C(O)[C@H](CC(=O)N1C[C@H]2CCCC[C@H]2C1)Cc1ccccc1 [Mitiglinide calcium dihydrate] and C=N[C@@H](C(=O)N[C@@H]1C(=O)N2[C@@H]1SC(C)(C)[C@@H]2C(=O)O)c1ccccc1 [Metampicillin sodium] cannot be ordered by CC50 at 24 h: > 50 µM for the first, > 50 µM for the second.

CSc1ccc(Cl)cc1 [4-Chlorophenyl methyl sulfide] and O=C(NN1CCCC1)NS(=O)(=O)c1ccc(Cl)cc1 [Glyclopyramide] cannot be ordered by CC50 at 24 h: > 90 µM for the first, > 50 µM for the second.

C=C(C)c1cccc(C(C)(C)N=C=O)c1 [1-(2-Isocyanatopropan-2-yl)-3-(prop-1-en-2-yl)benzene] and C[C@H](N)[C@H](O)c1cccc(O)c1 [Metaraminol bitartrate] cannot be ordered by CC50 at 24 h: > 90 µM for the first, > 20 µM for the second.

CCOCCOCC [Ethylene glycol diethyl ether] and C=C(C)C(=O)OCCOCC [2-Ethoxyethyl methacrylate] cannot be ordered by CC50 at 24 h: > 100 µM for the first, > 90 µM for the second.

C[C@]12CC[C@@H]3c4ccc(O)cc4CC[C@H]3[C@@H]1CCC2=O [Estrone] and C/C=C1\C(=O)C[C@H]2[C@@H]3CCC4=CC(=O)CC[C@]4(C)[C@H]3CC[C@]12C [Guggulsterone Z] cannot be ordered by CC50 at 24 h: > 50 µM for the first, > 50 µM for the second.

Going from CC(C)n1c(/C=C/[C@H](O)C[C@H](O)CC(=O)O)c(-c2ccc(F)cc2)c2ccccc21 (racemic) [Fluvastatin] to COCC(=O)O[C@]1(CCN(C)CCCc2nc3ccccc3[nH]2)CCc2cc(F)ccc2[C@@H]1C(C)C [Mibefradil dihydrochloride], the CC50 at 24 h falls from > 90 µM to 1.9 µM.

O=[N+]([O-])c1ccccc1 [Nitrobenzene] and O=C(O)C(=O)Cc1c[nH]c2ccccc12 [Indole-3-pyruvic acid] cannot be ordered by CC50 at 24 h: > 90 µM for the first, > 90 µM for the second.

Compared with c1ccc2sc(SN3CCOCC3)nc2c1 [N-Oxydiethylenebenzothiazole-2-sulfenamide], Cc1cccc(CN2CCN(C(c3ccccc3)c3ccc(Cl)cc3)CC2)c1 (centres unmarked) [Meclozine dihydrochloride] is lower in CC50 at 24 h: > 50 µM for the first, 15.6 µM for the second.

Compared with CCN(CC)CCNC(=O)c1c(C)[nH]c(/C=C2\C(=O)Nc3ccc(F)cc32)c1C [Sunitinib malate], CCC[C@@]1(CCc2ccccc2)CC(O)=C([C@H](CC)c2cccc(NS(=O)(=O)c3ccc(C(F)(F)F)cn3)c2)C(=O)O1 [Tipranavir] is higher in CC50 at 24 h: 20.1 µM for the first, > 50 µM for the second.

CC(C)CC(=O)CC(C)CC(C)C (centres unmarked) [2,6,8-Trimethyl-4-nonanone] and CC(C)(CO)CO [2,2-Dimethylpropane-1,3-diol] cannot be ordered by CC50 at 24 h: > 90 µM for the first, > 90 µM for the second.

Cc1cc(Nc2ccccc2C(=O)O)ccc1Cl [2-[(4-Chloro-3-methylphenyl)amino]benzoic acid] and Oc1ccc(Cc2ccccc2O)cc1 [2-(4-Hydroxybenzyl)phenol] cannot be ordered by CC50 at 24 h: > 50 µM for the first, > 90 µM for the second.

CN(C)CCc1c[nH]c2ccc(CS(=O)(=O)N3CCCC3)cc12 [Almotriptan] and Cc1ccc(S(=O)(=O)O)cc1 [4-Methylbenzenesulfonic acid] cannot be ordered by CC50 at 24 h: > 50 µM for the first, > 90 µM for the second.

First: O=C1Nc2ccccc2C1(c1ccc(O)cc1)c1ccc(O)cc1 [Oxyphenisatin]
Second: O=[N+]([O-])c1ccc2ccc3cccc4ccc1c2c34 [1-Nitropyrene]
The CC50 at 24 h of the first is lower: 61.2 µM for the first, > 90 µM for the second.

CCCCC(CC)(CO)CO [2-Butyl-2-ethyl-1,3-propanediol] and CCCOCCC [Propyl ether] cannot be ordered by CC50 at 24 h: > 90 µM for the first, > 90 µM for the second.

CCCCCCCCCCCCCCCC(=O)OC[C@@H](COP(=O)([O-])OCC[N+](C)(C)C)OC(=O)CCCCCCCCCCCCCCC and C=C(C)C(=O)OCCC[Si](Cl)(Cl)Cl [3-(Trichlorosilyl)propyl methacrylate] cannot be ordered by CC50 at 24 h: > 50 µM for the first, > 90 µM for the second.

First: N=C(N)NN=C1C=CC(=NNC(N)=S)C=C1 [Ambazone]
Second: CCN(CC)c1ccc(N)cc1 [N,N-Diethylbenzene-1,4-diamine]
The CC50 at 24 h of the first is 2.8-fold lower: 23 µM for the first, 64.7 µM for the second.

CS(=O)(=O)Cl [Methanesulfonyl chloride] and CCOCC(=O)O [Ethoxyacetic acid] cannot be ordered by CC50 at 24 h: > 90 µM for the first, > 90 µM for the second.

CC1(C)[C@H]2CC[C@](C)(C2)[C@H]1O [(1R)-endo-(+)-Fenchyl alcohol] and CC(C)(C)OC(=O)N1C[C@@H](F)C[C@H]1C(=O)O [1,2-Pyrrolidinedicarboxylicacid,4-fluoro-,1-(1,1-dimethylethyl)ester,(2S,4S)-] cannot be ordered by CC50 at 24 h: > 90 µM for the first, > 90 µM for the second.

Nc1ncnc2nc[nH]c12 [Adenine] and COc1ccc(-c2cc(=S)ss2)cc1 [Anethole trithione] cannot be ordered by CC50 at 24 h: > 90 µM for the first, > 50 µM for the second.

OC[C@H]1O[C@@H](O[C@H]2[C@H](O)[C@@H](O)C(O)O[C@@H]2CO)[C@H](O)[C@@H](O)[C@H]1O (some centres unmarked) [Lactose] and Cl[C@H]1[C@H](Cl)[C@@H](Cl)[C@H](Cl)[C@@H](Cl)[C@@H]1Cl [beta-Hexachlorocyclohexane] cannot be ordered by CC50 at 24 h: > 90 µM for the first, > 90 µM for the second.

Compared with N[C@@H](CS)C(=O)O [l-Cysteine hydrochloride], CNC(=O)c1cc(Oc2ccc(NC(=O)Nc3ccc(Cl)c(C(F)(F)F)c3)cc2)ccn1 [Sorafenib tosylate] is lower in CC50 at 24 h: > 90 µM for the first, 9.89 µM for the second.

Going from CCNCC [Diethylamine] to CN(Cc1ccc(C(C)(C)C)cc1)Cc1cccc2ccccc12 [Butenafine], the CC50 at 24 h falls from > 100 µM to 27.3 µM.

same assay, conditions: rat, gh3-tre-luc cells, AC50 (uM) modified / 1000, Tox21_110001=Tox21_200015; viability, 1 nM T3 present, 24 h

In the case of N#CSCc1ccccc1 [Benzyl thiocyanate], the CC50 at 24 h is reported as > 90 µM.

same assay, conditions: rat, gh3-tre-luc cells, AC50 (uM) modified / 1000, Tox21_110001=Tox21_200102; viability, 1 nM T3 present, 24 h

For BrCCc1ccccc1 [Phenethyl bromide], the CC50 at 24 h was > 90 µM.

same assay, conditions: rat, gh3-tre-luc cells, AC50 (uM) modified / 1000, Tox21_110001=Tox21_200693; viability, 1 nM T3 present, 24 h

Cn1c(N)nc2c3cccnc3ccc21 [2-Amino-3-methyl-3H-imidazo[4,5-f]quinoline] showed a CC50 at 24 h of 36.1 µM.

same assay, conditions: rat, gh3-tre-luc cells, AC50 (uM) modified / 1000, Tox21_110001=Tox21_200822; viability, 1 nM T3 present, 24 h

With C[N+](=O)[O-] [Nitromethane] the CC50 at 24 h was > 90 µM.

same assay, conditions: rat, gh3-tre-luc cells, AC50 (uM) modified / 1000, Tox21_110001=Tox21_200937; viability, 1 nM T3 present, 24 h

In the case of O=[N+]([O-])c1cc(Cl)c(Cl)cc1Cl [2,4,5-Trichloronitrobenzene], the CC50 at 24 h is reported as > 90 µM.

same assay, conditions: rat, gh3-tre-luc cells, AC50 (uM) modified / 1000, Tox21_110001=Tox21_201319; viability, 1 nM T3 present, 24 h

In the case of Cc1cc(Cl)ccc1OCCCC(=O)O [MCPB], the CC50 at 24 h is reported as > 100 µM.

same assay, conditions: rat, gh3-tre-luc cells, AC50 (uM) modified / 1000, Tox21_110001=Tox21_202175; viability, 1 nM T3 present, 24 h

For Nc1ccccc1C(=O)OCCc1ccccc1 [Phenethyl anthranilate], the CC50 at 24 h was > 90 µM.

same assay, conditions: rat, gh3-tre-luc cells, AC50 (uM) modified / 1000, Tox21_110001=Tox21_300752; viability, 1 nM T3 present, 24 h

With CCCSP(=O)(OCC)Oc1ccc(Br)cc1Cl (centres unmarked) [Profenofos] the CC50 at 24 h was > 50 µM.

same assay, conditions: rat, gh3-tre-luc cells, AC50 (uM) modified / 1000, Tox21_110001=Tox21_301424; viability, 1 nM T3 present, 24 h

With CNC(=O)Oc1cc(C)cc(C(C)C)c1 [Promecarb] the CC50 at 24 h was > 90 µM.

same assay, conditions: rat, gh3-tre-luc cells, AC50 (uM) modified / 1000, Tox21_110001=Tox21_303338; viability, 1 nM T3 present, 24 h

For Cc1cc(Cl)ccc1OCCCC(=O)O [MCPB], the CC50 at 24 h was > 90 µM.
